Reference: patent US20050170392A1, “OAT3 transporters expressed in blood brain barrier cells” (priority 2004, published 2005)

Tests used:
[1] = target: T1, PgP (Homo sapiens, UniProt P08183); test: Cellular transwell monolayer efflux assay, MDCK cells transfected with TREx-PgP; format: in vitro ADME
T1 construct: expressed in transfected cells; host or cells: MDCK cells
Procedure: A third type of efflux transporter assay is the cellular transwell monolayer efflux assay. […] The cells form a polarized monolayer. The transwell dishes have apical and basolateral chambers that are separated by the filter membrane on which the polarized monolayer is situated. Assays are performed by placing a test compound in either the apical or basolateral chamber, followed by sampling the opposite chamber after a predetermined period of time such as 60-120 minutes and measuring the amount of the test compound. The test compound can be measured by methods such as radiolabel detection or LC-MS-MS analysis. Assays are performed in the presence and absence of an efflux transporter inhibitor or competitor. Efflux transporter inhibitors or competitors increase apical to basolateral transport and decrease basolateral to apical transport of compounds that are efflux transporter substrates. Apparent permeability (Papp) of test compounds is measured. […] Test compounds that generate ratios between 1.5 and 2.0 require additional testing to determine if they are efflux transporter substrates.
MDCK cells transfected with the tetracycline-inducible TREx-PgP expression vector were seeded on polycarbonate filter membranes in transwell dishes and grown for 3-5 days, yielding a polarized monolayer with tight junctions between cells. […] The left set of bars depicts apical to basolateral transport, while the right set of bars depicts basolateral to apical transport.

[2] = target: T2, OAT3 (Homo sapiens, UniProt Q8TCC7); details: cited from earlier work
T2 sequence (Q8TCC7 1-542): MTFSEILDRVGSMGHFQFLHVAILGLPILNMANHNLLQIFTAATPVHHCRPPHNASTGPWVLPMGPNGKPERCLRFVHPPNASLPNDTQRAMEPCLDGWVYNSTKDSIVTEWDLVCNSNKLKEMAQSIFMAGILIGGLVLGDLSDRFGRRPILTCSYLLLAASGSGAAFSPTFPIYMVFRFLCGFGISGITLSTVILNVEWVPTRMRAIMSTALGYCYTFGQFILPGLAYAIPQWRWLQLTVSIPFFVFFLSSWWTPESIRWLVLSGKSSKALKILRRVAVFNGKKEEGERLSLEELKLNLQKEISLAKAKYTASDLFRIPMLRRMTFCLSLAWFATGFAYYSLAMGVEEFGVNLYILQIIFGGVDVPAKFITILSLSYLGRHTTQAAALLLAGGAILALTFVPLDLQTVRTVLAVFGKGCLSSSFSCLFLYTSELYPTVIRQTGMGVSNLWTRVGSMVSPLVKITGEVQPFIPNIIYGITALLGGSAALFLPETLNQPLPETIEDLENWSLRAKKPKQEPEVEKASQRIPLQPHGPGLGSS

[3] = 2.5 nM 3H-vinblastine, in the presence of 250 μM verapamil versus absence, FIG. 6

T1 sequence (P08183 whole entry): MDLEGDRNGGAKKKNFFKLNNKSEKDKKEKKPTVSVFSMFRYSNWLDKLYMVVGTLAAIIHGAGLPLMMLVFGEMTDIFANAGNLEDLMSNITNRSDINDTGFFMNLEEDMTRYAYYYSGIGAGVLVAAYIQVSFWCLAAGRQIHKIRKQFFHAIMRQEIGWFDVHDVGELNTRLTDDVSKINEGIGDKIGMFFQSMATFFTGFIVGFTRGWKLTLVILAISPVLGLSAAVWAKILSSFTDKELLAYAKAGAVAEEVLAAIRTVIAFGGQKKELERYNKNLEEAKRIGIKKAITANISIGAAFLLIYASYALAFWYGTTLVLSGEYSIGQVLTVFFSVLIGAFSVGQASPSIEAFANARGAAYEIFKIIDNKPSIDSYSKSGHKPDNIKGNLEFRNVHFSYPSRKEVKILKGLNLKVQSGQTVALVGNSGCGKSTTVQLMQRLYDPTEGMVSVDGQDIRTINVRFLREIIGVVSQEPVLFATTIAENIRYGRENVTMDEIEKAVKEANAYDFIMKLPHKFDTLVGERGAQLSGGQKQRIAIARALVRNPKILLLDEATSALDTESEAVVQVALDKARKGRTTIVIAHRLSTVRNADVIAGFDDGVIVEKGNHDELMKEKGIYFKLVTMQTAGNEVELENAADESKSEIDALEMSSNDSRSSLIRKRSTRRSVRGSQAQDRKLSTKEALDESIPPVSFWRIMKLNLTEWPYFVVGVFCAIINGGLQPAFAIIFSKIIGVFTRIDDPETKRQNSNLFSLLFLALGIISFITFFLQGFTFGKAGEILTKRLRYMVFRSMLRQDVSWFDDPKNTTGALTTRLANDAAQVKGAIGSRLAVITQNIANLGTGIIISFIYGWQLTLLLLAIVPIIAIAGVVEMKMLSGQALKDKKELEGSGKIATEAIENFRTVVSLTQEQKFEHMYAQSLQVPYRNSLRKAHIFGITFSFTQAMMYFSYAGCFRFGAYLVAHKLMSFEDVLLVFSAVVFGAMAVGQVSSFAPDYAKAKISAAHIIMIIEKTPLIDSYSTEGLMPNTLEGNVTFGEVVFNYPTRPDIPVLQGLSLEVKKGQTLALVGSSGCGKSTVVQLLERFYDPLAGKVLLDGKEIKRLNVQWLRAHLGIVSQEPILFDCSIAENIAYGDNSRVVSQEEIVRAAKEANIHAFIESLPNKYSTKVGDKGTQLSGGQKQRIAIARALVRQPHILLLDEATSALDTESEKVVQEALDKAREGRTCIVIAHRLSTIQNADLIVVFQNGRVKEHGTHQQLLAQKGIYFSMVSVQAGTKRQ

Row | SMILES | apical to basolateral transport [1, 3] | basolateral to apical transport [1, 3] | efflux transporter substrate status ([1]; conclusion from transwell transport with and without verapamil) | Reported Affinity for OAT3 [2]
1 | CC[C@]1(O)C[C@@H]2CN(CCc3c([nH]c4ccccc34)[C@@](C(=O)OC)(c3cc4c(cc3OC)N(C)[C@H]3[C@@](O)(C(=O)OC)[C@H](OC(C)=O)[C@]5(CC)C=CCN6CC[C@]43[C@@H]65)C2)C1 [^3H-vinblastine, vinblastine] | strongly increased | strongly decreased | substrate of PgP | 
2 | C[C@@H]1Cc2c(Cl)cc(C(=O)N[C@@H](Cc3ccccc3)C(=O)O)c(O)c2C(=O)O1 [Ochratoxin A] |  |  |  | 0.05 mM
3 | C[C@]12CC[C@@H]3c4ccc(OS(=O)(=O)O)cc4CC[C@H]3[C@@H]1CCC2=O [Estrone-3-sulphate] |  |  |  | 0.04 mM
4 | CC1(C)S[C@@H]2[C@H](NC(=O)Cc3ccccc3)C(=O)N2[C@H]1C(=O)O [Benzylpennicillin] |  |  |  | 0.3 mM
5 | CCCN(CCC)S(=O)(=O)c1ccc(C(=O)O)cc1 [Probenecid] |  |  |  | 0.05 mM
